Source: EP0049968A1, “Pharmaceutical compositions” (priority 1980, dated 1982)
Read-outs that look alike come from different tables or passages of the source.

Key:
[1] = test system: K-aerogenes strains producing both a plasmid-mediated and chromosomally mediated β-lactamase; assay: MIC of compound (i) alone and in combination with compound (iii), K. aerogenes strains; type: cell-based, Klebsiella aerogenes; settings: for MIC: Klebsiella aerogenes
[2] = test system: highly resistant strains of Pseudomonas aeruginosa (producing both a plasmid-and chromosomally-mediated β-lactamase); assay: MIC of compound (i) alone and in combination with compound (iii), Pseudomonas aeruginosa strains; type: cell-based; settings: for MIC: Pseudomonas aeruginosa
[3] = read-out: MIC µg/ml compound (i) alone
[4] = read-out: MIC µg/ml compound (i) alone, Geometric mean

Compound: CC1(C)S[C@@H]2[C@H](NC(=O)[C@H](NC(=O)Nc3cnc(Nc4ccc(S(N)(=O)=O)cc4)nc3O)c3ccc(O)cc3)C(=O)N2[C@H]1C(=O)O [compound (i)]
- MIC [1, 3]: > 160 µg/mL
- MIC [1, 4]: > 160 µg/mL
- MIC µg/ml compound (i) compound (iii) (µg/ml) 1, Geometric mean ([1]; geometric mean of 11 K. aerogenes strains, with compound (iii) 1 µg/ml, 95% confidence limits (0.49-50.9)): 5.0 µg/mL
- MIC µg/ml compound (i) compound (iii) (µg/ml) 2, Geometric mean ([1]; geometric mean of 11 K. aerogenes strains, with compound (iii) 2 µg/ml, 95% confidence limits (0.3-14.4)): 2.1 µg/mL
- MIC µg/ml compound (i) compound (iii) (µg/ml) 5, Geometric mean ([1]; geometric mean of 11 K. aerogenes strains, with compound (iii) 5 µg/ml, 95% confidence limits (0.14-4.5)): 0.81 µg/mL
- MIC µg/ml compound (i) compound (iii) (µg/ml) 10, Geometric mean ([1]; geometric mean of 11 K. aerogenes strains, with compound (iii) 10 µg/ml, 95% confidence limits (0.04-0.9)): 0.19 µg/mL
- MIC µg/ml compound (i) alone ([1]; strain 11793): >160 µg/mL
- MIC µg/ml compound (i) compound (iii) (µg/ml) 1 ([1]; strain 11793, with compound (iii) 1 µg/ml): 10 µg/mL
- MIC µg/ml compound (i) compound (iii) (µg/ml) 2 ([1]; strain 11793, with compound (iii) 2 µg/ml): 5 µg/mL
- MIC µg/ml compound (i) compound (iii) (µg/ml) 5 ([1]; strain 11793, with compound (iii) 5 µg/ml): 2.5 µg/mL
- MIC µg/ml compound (i) compound (iii) (µg/ml) 10 ([1]; strain 11793, with compound (iii) 10 µg/ml): 1.25 µg/mL
- MIC µg/ml compound (i) alone ([1]; strain 11974): >160 µg/mL
- MIC µg/ml compound (i) compound (iii) (µg/ml) 1 ([1]; strain 11974, with compound (iii) 1 µg/ml): 0.31 µg/mL
- MIC µg/ml compound (i) compound (iii) (µg/ml) 2 ([1]; strain 11974, with compound (iii) 2 µg/ml): 0.16 µg/mL
- MIC µg/ml compound (i) compound (iii) (µg/ml) 5 ([1]; strain 11974, with compound (iii) 5 µg/ml): 0.08 µg/mL
- MIC µg/ml compound (i) compound (iii) (µg/ml) 10 ([1]; strain 11974, with compound (iii) 10 µg/ml): 0.04 µg/mL
- MIC µg/ml compound (i) compound (iii) (µg/ml) 2 ([1]; strain BED4, with compound (iii) 2 µg/ml): 2.5 µg/mL
- MIC µg/ml compound (i) compound (iii) (µg/ml) 5 ([1]; strain BED4, with compound (iii) 5 µg/ml): 1.25 µg/mL
- MIC µg/ml compound (i) compound (iii) (µg/ml) 10 ([1]; strain BED4, with compound (iii) 10 µg/ml): 0.31 µg/mL
- MIC µg/ml compound (i) alone ([1]; strain BED6): >160 µg/mL
- MIC µg/ml compound (i) compound (iii) (µg/ml) 1 ([1]; strain BED6, with compound (iii) 1 µg/ml): 0.62 µg/mL
- MIC µg/ml compound (i) compound (iii) (µg/ml) 2 ([1]; strain BED6, with compound (iii) 2 µg/ml): 0.31 µg/mL
- MIC µg/ml compound (i) compound (iii) (µg/ml) 5 ([1]; strain BED6, with compound (iii) 5 µg/ml): 0.16 µg/mL
- MIC µg/ml compound (i) compound (iii) (µg/ml) 10 ([1]; strain BED6, with compound (iii) 10 µg/ml): 0.08 µg/mL
- MIC µg/ml compound (i) alone ([1]; strain BED9): >160 µg/mL
- MIC µg/ml compound (i) compound (iii) (µg/ml) 1 ([1]; strain BED9, with compound (iii) 1 µg/ml): 0.31 µg/mL
- MIC µg/ml compound (i) compound (iii) (µg/ml) 2 ([1]; strain BED9, with compound (iii) 2 µg/ml): 0.31 µg/mL
- MIC µg/ml compound (i) compound (iii) (µg/ml) 5 ([1]; strain BED9, with compound (iii) 5 µg/ml): 0.16 µg/mL
- MIC µg/ml compound (i) compound (iii) (µg/ml) 10 ([1]; strain BED9, with compound (iii) 10 µg/ml): 0.04 µg/mL
- MIC µg/ml compound (i) alone ([1]; strain Ba95): >160 µg/mL
- MIC µg/ml compound (i) compound (iii) (µg/ml) 1 ([1]; strain Ba95, with compound (iii) 1 µg/ml): 0.31 µg/mL
- MIC µg/ml compound (i) compound (iii) (µg/ml) 2 ([1]; strain Ba95, with compound (iii) 2 µg/ml): 0.31 µg/mL
- MIC µg/ml compound (i) compound (iii) (µg/ml) 5 ([1]; strain Ba95, with compound (iii) 5 µg/ml): 0.16 µg/mL
- MIC µg/ml compound (i) compound (iii) (µg/ml) 10 ([1]; strain Ba95, with compound (iii) 10 µg/ml): 0.02 µg/mL
- MIC µg/ml compound (i) alone ([1]; strain SA4): >160 µg/mL
- MIC µg/ml compound (i) compound (iii) (µg/ml) 1 ([1]; strain SA4, with compound (iii) 1 µg/ml): 2.5 µg/mL
- MIC µg/ml compound (i) compound (iii) (µg/ml) 2 ([1]; strain SA4, with compound (iii) 2 µg/ml): 1.25 µg/mL
- MIC µg/ml compound (i) compound (iii) (µg/ml) 5 ([1]; strain SA4, with compound (iii) 5 µg/ml): 0.31 µg/mL
- MIC µg/ml compound (i) compound (iii) (µg/ml) 10 ([1]; strain SA4, with compound (iii) 10 µg/ml): 0.08 µg/mL
- MIC µg/ml compound (i) alone ([1]; strain VA1): >160 µg/mL
- MIC µg/ml compound (i) compound (iii) (µg/ml) 1 ([1]; strain VA1, with compound (iii) 1 µg/ml): 10 µg/mL
- MIC µg/ml compound (i) compound (iii) (µg/ml) 2 ([1]; strain VA1, with compound (iii) 2 µg/ml): 5 µg/mL
- MIC µg/ml compound (i) compound (iii) (µg/ml) 5 ([1]; strain VA1, with compound (iii) 5 µg/ml): 2.5 µg/mL
- MIC µg/ml compound (i) compound (iii) (µg/ml) 10 ([1]; strain VA1, with compound (iii) 10 µg/ml): 0.31 µg/mL
- MIC µg/ml compound (i) alone ([1]; strain VA2): >160 µg/mL
- MIC µg/ml compound (i) compound (iii) (µg/ml) 1 ([1]; strain VA2, with compound (iii) 1 µg/ml): 40 µg/mL
- MIC µg/ml compound (i) compound (iii) (µg/ml) 2 ([1]; strain VA2, with compound (iii) 2 µg/ml): 10 µg/mL
- MIC µg/ml compound (i) compound (iii) (µg/ml) 5 ([1]; strain VA2, with compound (iii) 5 µg/ml): 2.5 µg/mL
- MIC µg/ml compound (i) compound (iii) (µg/ml) 10 ([1]; strain VA2, with compound (iii) 10 µg/ml): 0.62 µg/mL
- MIC µg/ml compound (i) alone ([1]; strain VA3): >160 µg/mL
- MIC µg/ml compound (i) compound (iii) (µg/ml) 1 ([1]; strain VA3, with compound (iii) 1 µg/ml): 40 µg/mL
- MIC µg/ml compound (i) compound (iii) (µg/ml) 2 ([1]; strain VA3, with compound (iii) 2 µg/ml): 10 µg/mL
- MIC µg/ml compound (i) compound (iii) (µg/ml) 5 ([1]; strain VA3, with compound (iii) 5 µg/ml): 2.5 µg/mL
- MIC µg/ml compound (i) compound (iii) (µg/ml) 10 ([1]; strain VA3, with compound (iii) 10 µg/ml): 0.31 µg/mL
- MIC µg/ml compound (i) alone ([1]; strain VA5): >160 µg/mL
- MIC µg/ml compound (i) compound (iii) (µg/ml) 1 ([1]; strain VA5, with compound (iii) 1 µg/ml): >80 µg/mL
- MIC µg/ml compound (i) compound (iii) (µg/ml) 2 ([1]; strain VA5, with compound (iii) 2 µg/ml): 80 µg/mL
- MIC µg/ml compound (i) compound (iii) (µg/ml) 5 ([1]; strain VA5, with compound (iii) 5 µg/ml): 20 µg/mL
- MIC µg/ml compound (i) compound (iii) (µg/ml) 10 ([1]; strain VA5, with compound (iii) 10 µg/ml): 2.5 µg/mL
- MIC [2, 3]: > 160 µg/mL
- MIC [2, 4]: > 160 µg/mL
- MIC µg/ml compound (i) compound (iii) (µg/ml) 1, Geometric mean ([2]; geometric mean of 6 Pseudomonas aeruginosa strains, with compound (iii) 1 µg/ml, 95% confidence limits (13.7-58.5)): 28.3 µg/mL
- MIC µg/ml compound (i) compound (iii) (µg/ml) 2, Geometric mean ([2]; geometric mean of 6 Pseudomonas aeruginosa strains, with compound (iii) 2 µg/ml, 95% confidence limits (4.7-21.4)): 10 µg/mL
- MIC µg/ml compound (i) compound (iii) (µg/ml) 5, Geometric mean ([2]; geometric mean of 6 Pseudomonas aeruginosa strains, with compound (iii) 5 µg/ml, 95% confidence limits (3.1-12.9)): 6.1 µg/mL
- MIC µg/ml compound (i) compound (iii) (µg/ml) 10, Geometric mean ([2]; geometric mean of 6 Pseudomonas aeruginosa strains, with compound (iii) 10 µg/ml, 95% confidence limits (2.7-14.6)): 6.3 µg/mL
- MIC µg/ml compound (i) alone ([2]; strain 1822): >160 µg/mL
- MIC µg/ml compound (i) compound (iii) (µg/ml) 1 ([2]; strain 1822, with compound (iii) 1 µg/ml): 40 µg/mL
- MIC µg/ml compound (i) compound (iii) (µg/ml) 2 ([2]; strain 1822, with compound (iii) 2 µg/ml): 5 µg/mL
- MIC µg/ml compound (i) compound (iii) (µg/ml) 5 ([2]; strain 1822, with compound (iii) 5 µg/ml): 2.5 µg/mL
- MIC µg/ml compound (i) compound (iii) (µg/ml) 10 ([2]; strain 1822, with compound (iii) 10 µg/ml): 2.5 µg/mL
- MIC µg/ml compound (i) compound (iii) (µg/ml) 1 ([2]; strain Dalgleish, with compound (iii) 1 µg/ml): 20 µg/mL
- MIC µg/ml compound (i) compound (iii) (µg/ml) 2 ([2]; strain Dalgleish, with compound (iii) 2 µg/ml): 10 µg/mL
- MIC µg/ml compound (i) compound (iii) (µg/ml) 5 ([2]; strain Dalgleish, with compound (iii) 5 µg/ml): 5 µg/mL
- MIC µg/ml compound (i) compound (iii) (µg/ml) 10 ([2]; strain Dalgleish, with compound (iii) 10 µg/ml): 10 µg/mL
- MIC µg/ml compound (i) alone ([2]; strain FR6): >160 µg/mL
- MIC µg/ml compound (i) compound (iii) (µg/ml) 1 ([2]; strain FR6, with compound (iii) 1 µg/ml): 80 µg/mL
- MIC µg/ml compound (i) compound (iii) (µg/ml) 2 ([2]; strain FR6, with compound (iii) 2 µg/ml): 40 µg/mL
- MIC µg/ml compound (i) compound (iii) (µg/ml) 5 ([2]; strain FR6, with compound (iii) 5 µg/ml): 20 µg/mL
- MIC µg/ml compound (i) compound (iii) (µg/ml) 10 ([2]; strain FR6, with compound (iii) 10 µg/ml): 10 µg/mL
- MIC µg/ml compound (i) alone ([2]; strain FR13): >160 µg/mL
- MIC µg/ml compound (i) compound (iii) (µg/ml) 1 ([2]; strain FR13, with compound (iii) 1 µg/ml): 40 µg/mL
- MIC µg/ml compound (i) compound (iii) (µg/ml) 2 ([2]; strain FR13, with compound (iii) 2 µg/ml): 10 µg/mL
- MIC µg/ml compound (i) compound (iii) (µg/ml) 5 ([2]; strain FR13, with compound (iii) 5 µg/ml): 5 µg/mL
- MIC µg/ml compound (i) compound (iii) (µg/ml) 10 ([2]; strain FR13, with compound (iii) 10 µg/ml): 2.5 µg/mL
- MIC µg/ml compound (i) alone ([2]; strain Horton): >160 µg/mL
- MIC µg/ml compound (i) compound (iii) (µg/ml) 1 ([2]; strain Horton, with compound (iii) 1 µg/ml): 20 µg/mL
- MIC µg/ml compound (i) compound (iii) (µg/ml) 2 ([2]; strain Horton, with compound (iii) 2 µg/ml): 10 µg/mL
- MIC µg/ml compound (i) compound (iii) (µg/ml) 5 ([2]; strain Horton, with compound (iii) 5 µg/ml): 10 µg/mL
- MIC µg/ml compound (i) compound (iii) (µg/ml) 10 ([2]; strain Horton, with compound (iii) 10 µg/ml): 20 µg/mL
- MIC µg/ml compound (i) alone ([2]; strain P22): >160 µg/mL
- MIC µg/ml compound (i) compound (iii) (µg/ml) 1 ([2]; strain P22, with compound (iii) 1 µg/ml): 10 µg/mL
- MIC µg/ml compound (i) compound (iii) (µg/ml) 2 ([2]; strain P22, with compound (iii) 2 µg/ml): 5 µg/mL
- MIC µg/ml compound (i) compound (iii) (µg/ml) 5 ([2]; strain P22, with compound (iii) 5 µg/ml): 5 µg/mL
- MIC µg/ml compound (i) compound (iii) (µg/ml) 10 ([2]; strain P22, with compound (iii) 10 µg/ml): 5 µg/mL
